# Test results reported in US20260137701A1, “CHOLESTENOIC ACID (CA) AND A SULFATED DERIVATIVE THEREOF, 3[BETA]-SULFATE-5-CHOLESTENOIC ACID (CA3S), AS ENDOGENOUS EPIGENETIC REGULATORS” (priority 2022, published 2026).
# Tested on: HepG-2 cells
# Assay: mRNA sequencing, differential expression genes
# Assay type: cell-based, human
# Details: 20 μM CA, 6 hours
# Protocol: After culturing HepG-2 cells in DMEM medium with HG for 72 hours followed by treating with 20 μM CA for 0, 3, 6, 12, and 24 hours, genomic DNA from 5×10^7 cells were extracted using QIAamp® DNA Mini Kit (QIAGEN, Hilden, Germany). Each sample, 6 μg, was sent to CD Genomics Co., Ltd (New York, USA) for analysis of WGBS. Total RNA was isolated using the Promega SV total RNA isolation system (Madison, WI, USA) with DNase treatment. Each sample, 2 μg, were sent to CD Genomics Co., Ltd (New York, USA) for analysis of RNA sequencing. The same samples, 2 μg, was used for the first-strand cDNA synthesis as recommended by the manufacturer (Invitrogen, Carlsbad, CA). RT-qPCR was performed using SYBR Green as the indicator on ABI 7500 Fast Real-Time PCR System (Applied Biosystems, Foster City, CA). Amplifications of j-actin or GAPDH were used as internal controls. Relative messenger RNA (mRNA) expression was quantified with the comparative cycle threshold (Ct) method using a sutiable primer set and was expressed as 2-ΔΔCt as described previously.
# Total RNA was extracted and purified from HepG-2 cells using SV total RNA isolation system (Promega, Madison, WI). Messenger RNA was purified from total RNA using poly-T oligo-attached magnetic beads. After fragmentation, the first strand cDNA was synthesized using random hexamer primers, followed by the second strand cDNA synthesis using either dUTP for directional library or dTTP for non-directional library. The library was checked with Qubit and real-time PCR for quantification and bioanalyzer for size distribution detection. Quantified libraries will be pooled and sequenced on Illumina® platforms, according to effective library concentration and data amount. Raw data (raw reads) of fastq format were first processed through in-house perl scripts. In this step, clean data (clean reads) were obtained by removing reads containing adapter, reads containing ploy-N and low-quality reads from raw data. At the same time, Q20, Q30 and GC content of the clean data were calculated. All the downstream analyses were based on clean data with high quality. The clean data were aligned to reference genome (GRCh37) using Hisat2 v2.0.5 software. Differential expression genes (DEGs) were performed using the DESeq2 R package (1.20.0). DAVID software (website located at david.ncifcrf.gov/) was used to test the statistical enrichment of DMR related genes in the GO and KEGG pathways.
structure (smiles),measurement,value
"CC(CCC[C@@H](C)[C@H]1CC[C@H]2[C@@H]3CC=C4C[C@@H](O)CC[C@]4(C)[C@H]3CC[C@]12C)C(=O)O (stereo partly drawn) [CA, 3β-hydroxy-5-cholestenoic acid]",Fold Change ABCF1 (down regulated gene),−1.35 fold
same,Fold Change ACTA1 (up regulated gene),1.32 fold
same,Fold Change ACTN4 (up regulated gene),3.26 fold
same,Fold Change ANGPTL8 (down regulated gene),−1.77 fold
same,Fold Change ARHGAP17 (up regulated gene),2.50 fold
same,Fold Change ATG16L1 (down regulated gene),−1.32 fold
same,Fold Change C2 (down regulated gene),−1.14 fold
same,Fold Change C5orf51 (down regulated gene),−1.06 fold
same,Fold Change CD99 (up regulated gene),3.60 fold
same,Fold Change COG5 (down regulated gene),−1.44 fold
same,Fold Change CPSF1 (down regulated gene),−4.45 fold
same,Fold Change CUTA (up regulated gene),1.76 fold
same,Fold Change CYP1A1 (up regulated gene),1.97 fold
same,Fold Change CYP51A1 (down regulated gene),−1.25 fold
same,Fold Change DCAF11 (down regulated gene),−1.74 fold
same,Fold Change DLG5 (up regulated gene),1.44 fold
same,Fold Change DNHD1 (down regulated gene),−1.21 fold
same,Fold Change EEF1A1P13 (up regulated gene),2.82 fold
same,Fold Change EEF1B2 (up regulated gene),1.29 fold
same,Fold Change EHMT2 (up regulated gene),1.16 fold
same,Fold Change FBL (down regulated gene),−1.87 fold
same,Fold Change FDFT1 (down regulated gene),−1.30 fold
same,Fold Change FLII (up regulated gene),2.04 fold
same,Fold Change FST (up regulated gene),1.25 fold
same,Fold Change FZD1 (up regulated gene),1.06 fold
same,Fold Change GBA (up regulated gene),2.25 fold
same,Fold Change GBP1 (up regulated gene),1.37 fold
same,Fold Change GFUS (down regulated gene),−2.73 fold
same,Fold Change GMPR2 (up regulated gene),3.88 fold
same,Fold Change GNL1 (up regulated gene),1.59 fold
same,Fold Change GTF2H1 (up regulated gene),1.85 fold
same,Fold Change GTPBP6 (down regulated gene),−2.08 fold
same,Fold Change HMGCR (down regulated gene),−1.55 fold
same,Fold Change HMGCS1 (down regulated gene),−2.12 fold
same,Fold Change HSD17B7 (down regulated gene),−1.05 fold
same,Fold Change HSPA1A (up regulated gene),1.22 fold
same,Fold Change HSPA1B (up regulated gene),1.16 fold
same,Fold Change IBTK (down regulated gene),−2.44 fold
same,Fold Change ID3 (down regulated gene),−2.65 fold
same,Fold Change IDI1 (down regulated gene),−1.86 fold
same,Fold Change INPP5K (up regulated gene),1.04 fold
same,Fold Change IPO4 (down regulated gene),−1.51 fold
same,Fold Change IRF9 (up regulated gene),1.42 fold
same,Fold Change LDLR (down regulated gene),−1.46 fold
same,Fold Change LFNG (up regulated gene),1.02 fold
same,Fold Change LINC02119 (down regulated gene),−1.39 fold
same,Fold Change LOC729973 (down regulated gene),−1.08 fold
same,Fold Change LOC107985276 (down regulated gene),−1.32 fold
same,Fold Change LOC112268009 (up regulated gene),1.19 fold
same,Fold Change LPCAT1 (down regulated gene),−1.43 fold
same,Fold Change MCRIP1 (up regulated gene),2.17 fold
same,Fold Change MINCR (up regulated gene),1.24 fold
same,Fold Change MSMO1 (down regulated gene),−2.30 fold
same,Fold Change MT1E (up regulated gene),1.81 fold
same,Fold Change MT1F (up regulated gene),2.51 fold
same,Fold Change MT1G (up regulated gene),2.43 fold
same,Fold Change MT1X (up regulated gene),2.15 fold
same,Fold Change MT2A (up regulated gene),1.44 fold
same,Fold Change MTCH2 (down regulated gene),−2.50 fold
same,Fold Change MTMR11 (up regulated gene),1.48 fold
same,Fold Change MVD (down regulated gene),−1.20 fold
same,Fold Change MVK (down regulated gene),−1.57 fold
same,Fold Change MYEOV (down regulated gene),−1.08 fold
same,Fold Change NDUFS1 (up regulated gene),1.45 fold
same,Fold Change NEK10 (up regulated gene),1.06 fold
